Source: US20020001582A1, “Methods and compositions for inhibiting microbial growth” (priority 1999, published 2002)

Legend:
Format in all cases: cell-based
[1] = system: Curvularia (Poa) (IM094); assay: Minimum effective treatment concentration, fungal plug in 1/5 potato dextrose broth
Experimental: (§1) Fungal cultures isolated from turfgrass were collected from different sources including B.C. Ministry of Agriculture, Fisheries and Food and ATCC.
(§2) ⅕ potato dextrose broth was prepared and autoclaved in Erlenmeyer flasks and allowed to cool. Different amounts of egg white lysozyme (Canadian Inovatech, Inc., B.C.) was weighed out and added directly into the flasks. Ten milliliters of broth was dispensed into sterile petri dishes.
(§3) A fungal square (“plug”) of each culture was cut and placed in/near the center of each plate. The petri dishes were then incubated at 22-25° C. During incubation, the petri dishes were evaluated individually by measuring the diameter of fungal growth.

[2] = system: Fusarium (IM095, Turfgrass isolate); assay: as above
Experimental: as §1, §2, §3

[3] = system: Gaeumannomyces graminis 97-923 (IM099); assay: as above
Experimental: as §1, §2, §3

[4] = system: Gaeumannomyces graminis 97-923 (IM100); assay: as above
Experimental: as §1, §2, §3

[5] = system: Gaeumannomyces graminis var.avenae (IM084); assay: as above
Experimental: as §1, §2, §3

[6] = system: Rhizoctonia solani (IM085); assay: as above
Experimental: as §1, §2, §3

[7] = system: Rhizoctonia spp. (IM079); assay: as above
Experimental: as §1, §2, §3

[8] = system: Sclerotinia homoeocarpa (IM088); assay: as above
Experimental: as §1, §2, §3

[9] = system: Typhula incarnata (IM086); assay: as above
Experimental: as §1, §2, §3

[10] = system: Fusarium; assay: Lysozyme against Fusarium inoculated from liquid broth
Experimental: PD broth was prepared and autoclaved in dilution bottles (100 ml) and allowed to cool. Various amounts of lysozyme were added into the bottles and dissolved. […] One ml of Fusarium broth was transferred into each dish and the contents were mixed well. The plates were incubated at room temperature for 2 weeks. The trial was carried out in triplicate and was repeated three times. Pictures of the fungi were taken daily using a digital camera and the data was transferred on to the computer and processed.

[11] = system: IM080 Botrytis (pepper, BCMAF F24); assay: Inhibition of Botrytis by lysozyme in PD broth, % plate coverage; conditions: for average fungal growth (% plate coverage): day 14
Experimental: (§4) Botrytis was grown in petri dishes on PD agar. Potato dextrose broth was prepared, poured into glass dilution bottles (100 ml each), autoclaved and allowed to cool. […] A fungal square (plug) of each culture was cut and placed in/near the center of each plate. Fungal growth was quantified by measuring the diameter of growth of each fungus while it was growing on the liquid media in each petri dish using a ruler. Each treatment was done in triplicate. The experiment was repeated three times (three batches). The observation period for each batch was 2 weeks.
(§5) The fungal growth was expressed in % coverage of the petri dishes by the fungal patches. The calculation is presented in the following equation:
(§6) Fungal growth (%)=(area of fungal patch/total plate area )×100
(§7) The average plate coverage for each treatment was plotted against the time after inoculation (FIGS. 14-19). Statistical analysis was carried out using SigmaStat (Version 2.0, SPSS Science, 1997).

[12] = system: IM082 Botrytis (blueberry, BCMAF F25); assay: as above; conditions: for coverage of the petri dishes: day 14
Experimental: as §4, §5, §6, §7

[13] = system: IM111 Botrytis (blueberry, BCMAF F27); assay: as above; conditions: for fungal growth (% plate coverage): day 14
Experimental: as §4, §5, §6, §7

[14] = system: IM112 Botrytis cinerea(Pers.); assay: as above
Experimental: as §4, §5, §6, §7

[15] = system: IM113 Botrytis cinerea(Pers.); assay: as above; conditions: for fungal growth (% plate coverage): day 14
Experimental: as §4, §5, §6, §7

[16] = system: IM188 Botrytis cinerea; assay: as above; conditions: for fungal growth (% plate coverage): day 14
Experimental: as §4, §5, §6, §7

For “lysozyme: type c egg white lysozyme, enzyme of approximately 129 amino acids; commercially available from Canadian Inovatech, Inc.”, which Comment ([1]; 1000 ppm, 21 day) is on record?
The Comment was “Fair-good”.

And the “Minimum effective treatment concentration of lysozyme” value ([1]; duration of trial 21 day)?
The value was 1000 ppm.

And the Comment ([2]; 250 ppm, 25 day)?
The Comment was “Excellent”.

What about the “Minimum effective treatment concentration of lysozyme” value ([2]; duration of trial 25 day) of the same substance?
The value was 250 ppm.

And the Comment ([3]; 1000 ppm, 21 day)?
Its Comment is “Excellent”.

And the “Minimum effective treatment concentration of lysozyme” value ([3]; duration of trial 21 day)?
Its value is 1000 ppm.

And the Comment ([4]; 1000 ppm, 21 day)?
The Comment was “Excellent”.

And the “Minimum effective treatment concentration of lysozyme” value ([4]; duration of trial 21 day)?
Its value is 1000 ppm.

And the Comment ([5]; 500 ppm, 13 day)?
The Comment was “Excellent”.

What about the “Minimum effective treatment concentration of lysozyme” value ([5]; duration of trial 13 day) of the same substance?
The value was 500 ppm.

What about the Comment ([6]; 250 ppm, 13 day) of the same substance?
Its Comment is “Fair-good”.

And the “Minimum effective treatment concentration of lysozyme” value ([6]; duration of trial 13 day)?
The value was 250 ppm.

What about the Comment ([7]; 150 ppm, 38 day) of the same substance?
Its Comment is “Excellent”.

What about the “Minimum effective treatment concentration of lysozyme” value ([7]; duration of trial 38 day) of the same substance?
The value was 150 ppm.

What about the Comment ([8]; 1000 ppm, 21 day) of the same substance?
The Comment was “Fair-good”.

And the “Minimum effective treatment concentration of lysozyme” value ([8]; duration of trial 21 day)?
The value was 1000 ppm.

What about the Comment ([9]; 1000 ppm, 21 day) of the same substance?
The Comment was “Excellent”.

And the “Minimum effective treatment concentration of lysozyme” value ([9]; duration of trial 21 day)?
Its value is 1000 ppm.

What about the “inhibition against Fusarium” value ([10]; 100 ppm or lower) of the same substance?
Its value is “not very effective”.

What about the “inhibition against Fusarium” value ([10]; 250 ppm) of the same substance?
Its value is “very good inhibition”.

And the “time for which growth of Fusarium is limited” value ([10]; 250 ppm)?
The value was “two weeks”.

And the “Minimum lysozyme usage recommended” value [11]?
Its value is 250-500 ppm.

And the “average fungal growth (% plate coverage)” value ([11]; 50 ppm)?
The value was 77.7%.

And the “average fungal growth (% plate coverage)” value ([11]; 100 ppm)?
The value was 79.5%.

What about the “fungal growth (% plate coverage) compared to 0, 50 and 100 ppm (Tukey)” value ([11]; 250, 500 and 1000 ppm) of the same substance?
Its value is “significantly reduced”.

What about the “average fungal growth (% plate coverage)” value ([11]; 250 ppm) of the same substance?
Its value is 38.6%.

What about the “average fungal growth (% plate coverage)” value ([11]; 500 ppm) of the same substance?
Its value is 25.7%.

And the “average fungal growth (% plate coverage)” value ([11]; 1000 ppm)?
Its value is 20.8%.

And the “coverage of the petri dishes” value ([12]; 50 ppm)?
Its value is 65.8%.

What about the “coverage of the petri dishes” value ([12]; 100 ppm) of the same substance?
Its value is 59.5%.

What about the “coverage of the petri dishes” value ([12]; 250 ppm) of the same substance?
The value was 36.1%.

And the “coverage of the petri dishes” value ([12]; 500 ppm)?
The value was 19.9%.

What about the “coverage of the petri dishes” value ([12]; 1000 ppm) of the same substance?
The value was 14.4%.

What about the “lowest concentration that significantly reduced the fungal growth” value ([12]; p<0.05) of the same substance?
The value was 50 ppm.

What about the “fungal growth (% plate coverage)” value ([13]; 50 ppm) of the same substance?
The value was 33.7%.

And the “fungal growth (% plate coverage)” value ([13]; 100 ppm)?
Its value is 37.8%.

What about the “fungal growth (% plate coverage)” value ([13]; 250 ppm) of the same substance?
Its value is 23.5%.

What about the “fungal growth (% plate coverage)” value ([13]; 500 ppm) of the same substance?
The value was 18.0%.

And the “lowest concentration that significantly reduced the fungal growth” value ([13]; p<0.05)?
Its value is 50 ppm.

What about the “fungal growth (% plate coverage)” value ([14]; 50 ppm) of the same substance?
Its value is 89.4%.

What about the “fungal growth (% plate coverage)” value ([14]; 100 ppm) of the same substance?
Its value is 90.0%.

What about the “fungal growth (% plate coverage)” value ([14]; 250 ppm) of the same substance?
Its value is 61.5%.

What about the “fungal growth (% plate coverage)” value ([14]; 500 ppm) of the same substance?
The value was 36.2%.

And the “fungal growth (% plate coverage)” value ([14]; 1000 ppm)?
Its value is 33.9%.

And the “concentration required to significantly reduce the growth” value ([14]; p<0.05)?
The value was 100 ppm.

And the “fungal growth (% plate coverage)” value ([15]; 50 ppm)?
The value was 96.9%.

And the “fungal growth (% plate coverage)” value ([15]; 100 ppm)?
The value was 90.6%.

What about the “fungal growth (% plate coverage)” value ([15]; 250 ppm) of the same substance?
Its value is 65.4%.

And the “fungal growth (% plate coverage)” value ([15]; 500 ppm)?
Its value is 43.0%.

What about the “fungal growth (% plate coverage)” value ([15]; 1000 ppm) of the same substance?
Its value is 34.7%.

What about the “minimum concentration required to effectively inhibit this strain” value ([15]; p<0.05) of the same substance?
The value was 100 ppm.

And the “fungal growth (% plate coverage)” value ([16]; 50 ppm)?
Its value is 87.2%.

What about the “fungal growth (% plate coverage)” value ([16]; 100 ppm) of the same substance?
Its value is 86.2%.

And the “fungal growth (% plate coverage)” value ([16]; 250 ppm)?
Its value is 34.0%.

And the “fungal growth (% plate coverage)” value ([16]; 500 ppm)?
Its value is 16.4%.

What about the “fungal growth (% plate coverage)” value ([16]; 1000 ppm) of the same substance?
The value was 11.3%.

And the “concentration at which the fungal growth was significantly reduced” value ([16]; p<0.05)?
Its value is 100 ppm.
